Measurements as given in patent US9180183B2, “Phospholipid drug analogs” (Telormedix SA, priority 2010, dated 2015).
“Also recorded” adds a separate entry of the source.

Key:
[1] = Stability study of SC12 under storage conditions (HPLC); format: physicochemical
PBMCs = assay: IL-6 and TNF-alpha secretion in PBMCs (ELISA), Model 2; format: cell-based, human; details: three donors
human PBMCs = assay: IL-6 secretion in human PBMCs, two batches of Compound A and SC12; format: cell-based; details: 5 months storage in DMSO at 4° C.
Method: PBMCs were purified from two donors and plated into 96 well plates at 2×10^5 cells/well in RPMI media including human 2% heat inactivated AB serum, glutamine, Pen-strep and R-mercapto-ethanol. […] The conditioned media was removed for ELISA analyses for IL-6, and the EC50 value determined for each compound and each batch.
All compounds were tested in four concentrations (10-1-0, 1-0.01 micromolar).
Concentrations of IL-6 were determined by ELISA from R&D Systems using the Microsoft Excel software. The results were analyzed in Graph Pad Prism in order to prepare dose-response curves, and for determination of EC50 values.

HLA-DR+/CD20+ B cells = assay: FACS analysis of B cell activation in whole blood; format: cell-based, human; details: 24 hours; 2 and 10 uM; three donors
Method: The FACS staining was performed according to the manufacturer's instructions. Lysis of red blood cells was performed before FACS staining in order to minimize auto-florescence. To include as many B cells and DCs in the study as possible the FACS analyses were performed on 500,000 cells in total for each staining. […] The results of the individual analysis were present as Mean Fluorescence Intensity
The analysis of expression of the activation marker CD40 on B cells was made on double positive HLA-DR (MHC class II) (P4 gate) and CD20 cells (B cell marker) (P8 gate).

[2] = test system: HLA-DR+/CD11c+/CD123- mDCs; assay: FACS analysis of myeloid DC activation in whole blood; format: cell-based, human; details: 24 hours; 0.1 and 0.5 uM; three donors
Method: The FACS analysis for donor 1 and donor 2 was made on another day than donor 3. The compound concentrations were as follows:
(§1) The FACS analysis was used to identify whether the test compounds could induce activation of B cells, and two different subsets of dendritic cells, namely the myeloid CD11c+/CD123− DCs and the plasmacytoid CD11c−/CD123+ DCs. The following markers were studied to identify the activation status of the different subsets:
(§2) The FACS staining was performed according to the manufacturer's instructions. Lysis of red blood cells was performed before FACS staining in order to minimize auto-florescence. To include as many B cells and DCs in the study as possible the FACS analyses were performed on 500,000 cells in total for each staining. A P1 gate was set only to include relevant cells on FSC vs. SSC (see FIGS. 12-15). The results of the individual analysis were present as Mean Fluorescence Intensity
The analysis of myeloid DCs was based on HLA-DR+/CD11c+/CD123−cells, thus all analyzed cells was included in the HLA-DR+ (P3) gate and CD11c+/CD123− (Q4) gate (see gates in FIGS. 13-15).

[3] = test system: HLA-DR+/CD11c-/CD123+ pDCs; assay: FACS analysis of plasmacytoid DC activation in whole blood; format: cell-based, human; details: 24 hours; 0.1 and 0.5 uM; three donors
Method: A flow cytometric analysis was performed on whole blood from three donors after treatment with two compound concentrations for 24 h. The FACS analysis for donor 1 and donor 2 was made on another day than donor 3. The compound concentrations were as follows:
as §1, §2
The analysis of pDCs was based on HLA-DR+/CD11c−/CD123+ cells, thus all analyzed cells were included in the HLA-DR+ (P3) gate and CD11c−/CD123+ (Q1) gate. (FIGS. 13-15).

[4] = test system: Salmonella typhimurium TA1535, TA1537, TA98, TA100; assay: Bacterial mutation assay, Salmonella typhimurium; format: cell-based; details: absence or presence of S9 metabolism
Method: The five tester strains TA1535, TA1537, TA98, TA100 and WP2 uvrA were used. Experiments were performed both in the absence and presence of metabolic activation, using liver S9 fraction from rats pre-treated with phenobarbitone and betanaphthoflavone. SC12 was used as a solution in dimethylsulfoxide (DMSO).

[5] = test system: 73 primary molecular targets (human recombinant receptor types and subtypes or membrane fraction from rodent tissue homogenates); assay: Radioligand binding assay among 73 primary molecular targets; details: SC12 at 30 microM
[6] = Intravenous pharmacokinetics in the mouse; details: IV bolus 1 mg/kg; for Plasma concentration Mean ± S.D.: LLOQ: 5 ng/ml
Method: An IV bolus was administered into the caudal vein at a dose of 1 mg/kg in 5 ml. The compound weight was 2.08/10.04 ml. 24 mice were studied. Sampling was obtained by exsanguination under anesthesia, at 5, 15, 30, 60, 240, and 480 minutes, and at 24 hours. […] Animals were sacrificed using ethyl ether at the conclusion of the experiment.
Sample preparation: In a Sirocco filter plate, 100 microliters of plasma were added to 300 microliters of ACN/MeOH spiked with 5 microliters of IS (IV298 10 micrograms per ml) plus 10 microliters of 5% H3PO4. The plate was shaken for 10 minutes at 80 rpm and then filtered under vacuum for 5 minutes.
Analytical method: LC/MS/MS: Premiere XE, Eluent: water (A) MeOH (B) plus 0.1% HCOOH gradient. 15% B to 100% B from 0.1 to 0.5, then isocratic 100% B up to 1.5 minutes, flow 0.8 ml/min; Column Acquity UPLC BEH C18 1.7 microm 2.1×50 mm, injection volume of 5 microliters in a T column at 50° C. ESI positive, MRM, Extractor 5V; Capillary 3.5 kV; T source 115° C.; T desolv. 450° C.
Data analysis: Non-compartmental analysis WinNonlin 5.1; linear trapezoidal, uniform weight.

CYP3A5 = CYP3A5 (Homo sapiens (Human), UniProt P20815); assay: Fluorescent High Throughput P450 assay CYP3A5; format: in vitro ADME
Method: Inhibition of the P450 isoforms was measured in specific assays using specific substrates that become fluorescent upon CYP metabolism. Compounds, dissolved in ACN (acetonitrile) (CYP2E1, CYP2C8, CYP2B6, CYP3A5) or DMSO (all remaining isoforms), were tested in duplicate (n=2) in concentration-response curves (eight concentrations) in a 96-well plate containing incubation/NADPH regenerating buffer. Specific isoenzymes and substrates were added and incubated at 37° C. Reactions were terminated at different times, depending on the assays, and plates read on a Fluoroskan Ascent at the appropriate emission/excitation wavelengths. Concentration-response curves performed in duplicate for known inhibitors for each isoenzyme were tested in every assay as positive control.

[7] = test system: Cutaneous Squamous Cell Carcinoma (SCC) cell lines SCL-I, SCL-II, SCC-12, SCC-13; assay: Proapoptotic and cytotoxic effects on cutaneous SCC cell lines (real-time cell analysis, microscopy); format: cell-based, human
Method: SCC cells are grown under standard conditions (10% FBS).
Time and dose dependency of effects on total cell numbers have been investigated by real-time cell analysis, which is based on continuous monitoring of electric conductance in microtiter wells (E-plates, Roche), which corresponds to the cell numbers. […] For these assays 4 cell lines should be used to obtain a representative overview on the effects on SCC cells.

[8] = test system: AY-27 rat bladder cancer cell-line; details: in vivo
[9] = test system: AY-27 rat bladder cancer cell-line; details: day 12
[10] = solid, RT and light, t = 20 days
[11] = solid, external T and light, t = 20 days
[12] = solution in CHCl3, RT and light, t = 0
[13] = solution in CHCl3, RT and light, t = 20 days

Sequence of CYP3A5 (P20815 whole entry, looked up): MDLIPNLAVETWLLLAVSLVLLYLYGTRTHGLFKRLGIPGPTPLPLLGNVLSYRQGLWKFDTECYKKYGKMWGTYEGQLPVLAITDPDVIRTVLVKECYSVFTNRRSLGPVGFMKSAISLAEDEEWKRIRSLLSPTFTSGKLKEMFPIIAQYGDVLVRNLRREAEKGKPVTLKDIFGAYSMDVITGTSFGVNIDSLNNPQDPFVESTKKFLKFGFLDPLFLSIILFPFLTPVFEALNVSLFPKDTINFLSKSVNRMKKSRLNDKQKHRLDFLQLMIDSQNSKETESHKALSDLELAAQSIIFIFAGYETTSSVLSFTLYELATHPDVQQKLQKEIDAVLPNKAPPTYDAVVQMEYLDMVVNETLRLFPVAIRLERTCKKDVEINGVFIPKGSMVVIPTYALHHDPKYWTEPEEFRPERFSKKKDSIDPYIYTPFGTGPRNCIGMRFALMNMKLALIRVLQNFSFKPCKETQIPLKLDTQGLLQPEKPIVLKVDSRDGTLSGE

CCCCCCCCCCCC(=O)OCC(COP(=O)(O)OCCNC(=O)c1ccc(Cn2c(=O)[nH]c3c(N)nc(OCCOC)nc32)cc1)OC(=O)CCCCCCCCCCC (stereo not drawn) [SC12]
HPLC % at RRT = 1 (main peak) [1, 10]: RRT = 1: 87.8% | HPLC % of impurity at RRT = 0.88 [1, 10]: RRT = 0.88: 6.2% | HPLC % of impurity at RRT = 1.21 [1, 10]: RRT = 1.21: 4.8% | HPLC % at RRT = 1 (main peak) [1, 11]: RRT = 1: 84.0% | HPLC % of impurity at RRT = 0.88 [1, 11]: RRT = 0.88: 6.6% | HPLC % of impurity at RRT = 1.21 [1, 11]: RRT = 1.21: 7.1% | HPLC % at RRT = 1 (main peak) [1, 12]: RRT = 1: 90.3% | HPLC % of impurity at RRT = 0.46 [1, 12]: RRT = 0.46: 5.7% | HPLC % of impurity at RRT = 1.21 [1, 12]: RRT = 1.21: 0.9% | HPLC % at RRT = 1 (main peak) [1, 13]: RRT = 1: 88.0% | HPLC % of impurity at RRT = 0.88 [1, 13]: RRT = 0.88: 6.2% | HPLC % of impurity at RRT = 1.21 [1, 13]: RRT = 1.21: 5.0% | induction of IL-6 and TNF-alpha secretion (in words) (PBMCs): most potent TLR7 agonists | activity after storage (in words) (human PBMCs): have not lost activity | CD40 expression (MFI, in words) (HLA-DR+/CD20+ B cells): induced CD40 expression in donor 1 and donor 2 in all tested concentrations | CCR7 expression in mDCs (MFI, in words) [2]: less potent stimulator of CCR7 expression | CD80 expression in mDCs (MFI, in words) [2]: induced a noteworthy CD80 expression in all three donors | CD86 expression in mDCs (MFI, in words) [2]: induces a weak CD86 expression in donor 2 and 3, but not in donor 1 | CD80 expression in pDCs (MFI, in words) [3]: induces a slightly higher CD80 expression than compound A | CD86 expression in pDCs (MFI, in words) [3]: tendency to induce higher CD86 expression than compound A | toxicity to tester strains ([4]; toxicity test, 50.0-5000 micrograms/plate): No toxicity was observed | reverse mutation / revertant colonies ([4]; up to 5000 micrograms/plate): did not induce two-fold increases in the number of revertant colonies; also recorded: does not induce reverse mutation | binding to receptors associated with pain-related syndromes (e.g. adenosine and sodium channel) [5]: did not bind | adverse behavioral effects [6]: No adverse behavioral effects | Cl ([6]; plasma): 77.7 mL/min/kg | Clast ([6]; plasma): 6 ng/mL | MRT ([6]; plasma): 32 min | T ½ ([6]; plasma): 130 min | Tlast ([6]; plasma): 120 min | Tmax ([6]; plasma): 5 min | Vss ([6]; plasma): 2.5 L/kg | Plasma concentration Mean ± S.D. ([6]; 240 min): <LLOQ | Plasma concentration Mean ± S.D. ([6]; 480 min): <LLOQ | Plasma concentration Mean ± S.D. ([6]; 1440 min): <LLOQ | inhibition of CYP3A5 (in words) (CYP3A5): moderate inhibition | morphological changes (microscopy) ([7]; SCC cells, time of treatment 3d, 120 microM): cell detachment, morphological changes and inhibition of proliferation | cell numbers (real-time cell analysis, electric conductance) ([7]; cutaneous SCC cell lines): reduced cell numbers | signs of toxicity (in words) [8]: No signs of toxicity | Range of weight of the rat bladders ([9]; 0.5 ml intravesical instillation (Imiquimod 0.1%, SC12 0.38%) on day 2 and 5): 0.0780-0.1422 grams | Tumor free (% of rats) ([9]; of 14 rats per group): 42.9% | Tumor free (number of rats) ([9]; of 14 rats per group): 6 | pT2 Tumor (% of rats) ([9]; of 14 rats per group): 50.0% | pT2 Tumor (number of rats) ([9]; of 14 rats per group): 7 | pTa Tumor (% of rats) ([9]; of 14 rats per group): 7.1% | pTa Tumor (number of rats) ([9]; of 14 rats per group): 1
